Marks after values point to notes of the source that are not given here.
Test system: female rats
Experiment: Plasma metabolite profiling (GC-MS, LC-MS, SPE-LC-MS) in female rats dosed once daily over 28 days (OECD 407)
Format: in vivo, rat
Settings: high dose
In short: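 Polar and lipid fractions profiled by GC-MS and LC-MS/MRM, steroids by online SPE-LC-MS; pool-normalized data compared to controls by Welch test as treatment ratios and p-values.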

SMILES: C[C@]12CCC(=O)C=C1CC[C@@H]1[C@@H]2CC[C@@]2(C)[C@H]1CC[C@]2(C)O [17-alpha-Methyltestosterone]
- 3-Hydroxybutyrate (f7, female rats, Table 15a): 1.5*
- DAG (C18:1,C18:2) (f7, female rats, Table 15a): 3.01 *
- Glutamate (f7, female rats, Table 15a): 1.56 *
- Glycine (f7, female rats, Table 15a): 1.28 *
- Phosphatidylcholine (C16:0,C20:5) (f7, female rats, Table 15a): 1.22 *
- TAG (C16:0,C16:1) (f7, female rats, Table 15a): 3.85 *
- TAG (C16:0,C18:1,C18:3) (f7, female rats, Table 15a): 8.68 *
- TAG (C16:0,C18:2) (f7, female rats, Table 15a): 4.63 *
- TAG (C18:1,C18:2) (f7, female rats, Table 15a): 5.83 *
- TAG (C18:2,C18:2) (f7, female rats, Table 15a): 4.67 *
- TAG (C18:3, C18:2, C18:1) (f7, female rats, Table 15a): 6.36*
- TAG (DAG-Fragment) (f7, female rats, Table 15a): 5.82 *
- TAG No 059 (f7, female rats, Table 15a): 3.27 *
- Threonic acid (f7, female rats, Table 15a): 1.65 *
- trans-4-Hydroxyproline (f7, female rats, Table 15a): 1.4 *
- Arginine (f7, female rats, Table 15b): 0.69 *
- Campesterol (f7, female rats, Table 15b): 0.65 *
- Ceramide (d18:1,C24:0) (f7, female rats, Table 15b): 0.79 *
- Lactate (f7, female rats, Table 15b): 0.47 *
- Lysine (f7, female rats, Table 15b): 0.49 *
- Metanephrine (f7, female rats, Table 15b): 0.78 *
- Normetanephrine (f7, female rats, Table 15b): 0.61 *
- Phosphatidylcholine (C16:0,C20:5) (f7, female rats, Table 15b): 1.22
- Phosphatidylcholine (C16:0,C22:6) (f7, female rats, Table 15b): 0.86 *
- Phosphatidylcholine (C18:0, C20:3) (f7, female rats, Table 15b): 0.69 *
- Phosphatidylcholine (C18:0,C18:1) (f7, female rats, Table 15b): 0.78 *
- Pyruvate (f7, female rats, Table 15b): 0.52 *
- Sphingomyelin (d18:1,C23:0) (f7, female rats, Table 15b): 0.56 *
- Sphingomyelin (d18:1,C24:0) (f7, female rats, Table 15b): 0.67 *
- Urea (f7, female rats, Table 15b): 0.72 *
- 3-Hydroxybutyrate (f14, female rats, Table 15a): 2.03 *
- DAG (C18:1,C18:2) (f14, female rats, Table 15a): 3.17 *
- Glutamate (f14, female rats, Table 15a): 1.43 *
- Glycine (f14, female rats, Table 15a): 1.15 *
- Phosphatidylcholine (C16:0,C20:5) (f14, female rats, Table 15a): 1.15 *
- TAG (C16:0,C16:1) (f14, female rats, Table 15a): 2.59 *
- TAG (C16:0,C18:1,C18:3) (f14, female rats, Table 15a): 7.54 *
- TAG (C16:0,C18:2) (f14, female rats, Table 15a): 4.63 *
- TAG (C18:1,C18:2) (f14, female rats, Table 15a): 4.5 *
- TAG (C18:2,C18:2) (f14, female rats, Table 15a): 5.09 *
- TAG (C18:3, C18:2, C18:1) (f14, female rats, Table 15a): 5.29 *
- TAG (DAG-Fragment) (f14, female rats, Table 15a): 5.43 *
- TAG No 059 (f14, female rats, Table 15a): 4.08 *
- Threonic acid (f14, female rats, Table 15a): 2.84 *
- trans-4-Hydroxyproline (f14, female rats, Table 15a): 1.56 *
- Arginine (f14, female rats, Table 15b): 0.67 *
- Campesterol (f14, female rats, Table 15b): 0.62 *
- Ceramide (d18:1,C24:0) (f14, female rats, Table 15b): 0.7 *
- Lactate (f14, female rats, Table 15b): 0.34 *
- Lysine (f14, female rats, Table 15b): 0.49 *
- Metanephrine (f14, female rats, Table 15b): 0.66 *
- Normetanephrine (f14, female rats, Table 15b): 0.65 *
- Phosphatidylcholine (C16:0,C20:5) (f14, female rats, Table 15b): 1.15
- Phosphatidylcholine (C16:0,C22:6) (f14, female rats, Table 15b): 0.78 *
- Phosphatidylcholine (C18:0, C20:3) (f14, female rats, Table 15b): 0.76 *
- Phosphatidylcholine (C18:0,C18:1) (f14, female rats, Table 15b): 0.94 *
- Pyruvate (f14, female rats, Table 15b): 0.35 *
- Sphingomyelin (d18:1,C23:0) (f14, female rats, Table 15b): 0.52 *
- Sphingomyelin (d18:1,C24:0) (f14, female rats, Table 15b): 0.6 *
- Urea (f14, female rats, Table 15b): 0.63 *
- 3-Hydroxybutyrate (f28, female rats, Table 15a): 1.49 *
- DAG (C18:1,C18:2) (f28, female rats, Table 15a): 2.97 *
- Glutamate (f28, female rats, Table 15a): 1.58 *
- Glycine (f28, female rats, Table 15a): 1.29 *
- Phosphatidylcholine (C16:0,C20:5) (f28, female rats, Table 15a): 1.17*
- TAG (C16:0,C16:1) (f28, female rats, Table 15a): 2.04 *
- TAG (C16:0,C18:1,C18:3) (f28, female rats, Table 15a): 9.21*
- TAG (C16:0,C18:2) (f28, female rats, Table 15a): 5.09 *
- TAG (C18:1,C18:2) (f28, female rats, Table 15a): 5.32 *
- TAG (C18:2,C18:2) (f28, female rats, Table 15a): 8.15 *
- TAG (C18:3, C18:2, C18:1) (f28, female rats, Table 15a): 7.3*
- TAG (DAG-Fragment) (f28, female rats, Table 15a): 6.9 *
- TAG No 059 (f28, female rats, Table 15a): 5.2 *
- Threonic acid (f28, female rats, Table 15a): 2.29 *
- trans-4-Hydroxyproline (f28, female rats, Table 15a): 1.61 *
- Arginine (f28, female rats, Table 15b): 0.59 *
- Campesterol (f28, female rats, Table 15b): 0.66 *
- Ceramide (d18:1,C24:0) (f28, female rats, Table 15b): 0.52 *
- Lactate (f28, female rats, Table 15b): 0.52 *
- Lysine (f28, female rats, Table 15b): 0.52 *
- Metanephrine (f28, female rats, Table 15b): 0.81 *
- Normetanephrine (f28, female rats, Table 15b): 0.66 *
- Phosphatidylcholine (C16:0,C20:5) (f28, female rats, Table 15b): 1.17
- Phosphatidylcholine (C16:0,C22:6) (f28, female rats, Table 15b): 0.79 *
- Phosphatidylcholine (C18:0, C20:3) (f28, female rats, Table 15b): 0.68 *
- Phosphatidylcholine (C18:0,C18:1) (f28, female rats, Table 15b): 0.81 *
- Pyruvate (f28, female rats, Table 15b): 0.4 *
- Sphingomyelin (d18:1,C23:0) (f28, female rats, Table 15b): 0.42 *
- Sphingomyelin (d18:1,C24:0) (f28, female rats, Table 15b): 0.52 *
- Urea (f28, female rats, Table 15b): 0.8*
